Source: patent US11524962B2, “Substituted pyrrolo[2,3-d]pyrimidines as inhibitors of protein arginine methyl transferase 5 (PRMT5)” (PRELUDE THERAPEUTICS, INCORPORATED, priority 2017, dated 2022)
Like-named read-outs stand apart in the source and are kept apart here.

Tests used:
PRMT5/MEP50 complex = PRMT5/MEP50 complex (Homo sapiens (Human), UniProt O14744); assay: Flash plate assay; assay type: biochemical
Experimental: Flash plate assay. Compounds were solubilized, and 3-fold diluted in 100% DMSO. […] Standard reactions were performed in a total volume of 30 μl in assay buffer, with 300 nM histone H4 based AcH4-23 (Anaspec: AS-65002) as substrate. To this was added the PRMT5/MEP50 complex diluted to provide a final assay concentration of 2.5 nM and the compounds were allowed to preincubate for 20 minutes at 37° C. The reaction was initiated by adding S-[3H-methyl]-adenosyl-L-methionine (PerkinElmer: NET155001MC) to final concentration of 1 μM. Following a 30 minutes incubation at 37° C., the reaction was stopped by adding 25 μL of 8M Guanidine HCl. Prepare streptavidin YSI SPA beads (Perkinelmer: RPNQ0012) at 0.3 mg/mL in assay buffer. To each reaction, add 150 μL of SPA beads suspension, and incubated while shaking at room temperature for 30 minutes. The plate was centrifuged at 100×g for 30 second before reading in a scintillation counter. IC50 values were determined by fitting the data to the standard 4 parameters with Hill Slope using GraphPad Prism software. This procedure produced the Flash Plate data in Table 7.

Granta-519 cells = assay: Cell proliferation assay in Granta-519 cells; assay type: cell-based; details: Homo sapiens
Experimental: Granta-519 cells were maintained in PRMI 1640 (Corning Cellgro, Catalog #: 10-040-CV) medium supplemented with 10% v/v FBS (GE Healthcare, Catalog #: SH30910.03). Compounds were dissolved in DMSO to make 10 mM stocks and stored at −20° C. Nine-point, 3-fold serial dilutions were made with DMSO with top concentration at 1 mM (working stocks).
On day of experiment, compound working stocks were further diluted at 1:50 with fresh medium in 96 well plate, and 10 μL of diluted drugs were added to a new 96 well plate for proliferation assay. Cells growing at exponential phase were spun down at 1500 rpm for 4 min and resuspend in fresh medium to reach a density of 0.5×10^6 cells/ml. 200 ul of cells were added to 96 well plate containing diluted drugs and incubated for 3 days. DMSO was used a vehicle control.
On day 3, 10 μL of Cell Counting Kit-8 (CCK-8, Jojindo, CK04-13) solution was added to a new 96 well plate. Cells incubated with drugs for 3 days were resuspended by pipetting up and down, and 100 μL of cells were transferred to 96 well plate containing CCK-8 reagent to measure viable cells. Plates were incubated in CO2 incubator for 2 hours and OD450 values were measured with a microplate reader (iMark microplate reader, Bio-Rad).
For re-plating, compound working stocks were diluted at 1:50 with fresh medium and 10 μL of diluted drugs were added to a new 96 well plate. Cells from Day 3 plate (50 ul) were added to 96 well plate containing fresh drug and additional 150 μL of fresh medium was added to reach 200 μL volume. Plate was returned to CO2 incubator and incubated for 3 more days. Viable cells measurement and re-plating were repeated on day 6, and the final viable cells measurement was taken on day 10.
Percentage of viable cells, relative to DMSO vehicle control, were calculated and plotted in Graphpad Prism ([Inhibitor]vs. normalized response−Variable slope) to determine proliferation IC50 values on day 10.
One day before experiment, Granta-519 cells were passaged to a density of 0.5×10^6 cells/ml. U-87 MG cells were trypsinized and 2,000 cells were seeded into 96-well plates and allow to grow overnight. On the day of experiment (day 0), Granta-519 Cells were spun down at 1,500 rpm for 4 min, resuspended in fresh medium to 0.5×10^6 cells/ml and 190 ul of cells were added to 96 well plates. For U-87 MG cells, old medium was removed and replaced with 190 uL fresh medium. Compound working stocks were first diluted at 1:50 with fresh medium in 96 well plate and 10 μL of diluted drugs were added to 96 well plates containing cells and incubated for 3 days. DMSO was used a vehicle control.
One day 3, 50 uL of Granta-519 cells were transferred to a new 96-well plate and 140 uL fresh medium was added. For U-87 MG cells, old medium was removed and replaced with 190 uL fresh medium. Compound working stocks were freshly diluted at 1:50 with medium and 10 μL of diluted drugs were added to cells and grow for 3 additional days. The same process was repeated on day 6. Cells were allowed to grow for additional 4 days.
On day 10, 100 uL Granta-519 cells were transferred to a new 96 well plate and 10 μL of Cell Counting Kit-8 (CCK-8, Jojindo, CK04-13) solution was added. For U-87 MG cells, old medium was removed and replaced with 100 uL fresh medium and 10 uL CCK-8 solution was added. Plates were incubated in CO2 incubator for 2 hours (Granta-519 cells) or 30 min (U-87 MG cells) and OD450 values were measured with a microplate reader (iMark microplate reader, Bio-Rad). Percentage of viable cells, relative to DMSO vehicle control, were calculated and plotted in Graphpad Prism ([Inhibitor]vs. normalized response−Variable slope) to determine proliferation IC50 values on day 10.
These cell proliferation procedures produced the data in Table 7.

[1] = initial testing, read-out: IC50 (flash plate)
[2] = 240 h, Granta-519, day 10, read-out: Prolif_Granta IC50

PRMT5/MEP50 complex, sequence (O14744 whole entry): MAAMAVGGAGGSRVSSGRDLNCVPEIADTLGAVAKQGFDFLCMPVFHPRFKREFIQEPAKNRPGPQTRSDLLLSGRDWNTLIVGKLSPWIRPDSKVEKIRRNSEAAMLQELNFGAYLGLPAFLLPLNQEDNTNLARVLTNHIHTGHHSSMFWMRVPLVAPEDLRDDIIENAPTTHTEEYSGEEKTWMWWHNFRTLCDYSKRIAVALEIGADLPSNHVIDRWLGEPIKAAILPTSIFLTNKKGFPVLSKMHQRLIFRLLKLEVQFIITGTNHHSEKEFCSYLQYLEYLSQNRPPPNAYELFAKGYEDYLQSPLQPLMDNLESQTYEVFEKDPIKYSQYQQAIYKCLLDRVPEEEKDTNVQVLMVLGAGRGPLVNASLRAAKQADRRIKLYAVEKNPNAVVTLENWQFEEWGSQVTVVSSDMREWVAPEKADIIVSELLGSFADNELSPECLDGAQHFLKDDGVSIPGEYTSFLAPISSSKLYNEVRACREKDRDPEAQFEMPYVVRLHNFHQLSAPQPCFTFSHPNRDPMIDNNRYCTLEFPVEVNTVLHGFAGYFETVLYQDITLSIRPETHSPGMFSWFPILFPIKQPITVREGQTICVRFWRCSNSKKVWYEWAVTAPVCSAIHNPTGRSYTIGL
PRMT5/MEP50 complex, sequence (Q9BQA1 whole entry partner): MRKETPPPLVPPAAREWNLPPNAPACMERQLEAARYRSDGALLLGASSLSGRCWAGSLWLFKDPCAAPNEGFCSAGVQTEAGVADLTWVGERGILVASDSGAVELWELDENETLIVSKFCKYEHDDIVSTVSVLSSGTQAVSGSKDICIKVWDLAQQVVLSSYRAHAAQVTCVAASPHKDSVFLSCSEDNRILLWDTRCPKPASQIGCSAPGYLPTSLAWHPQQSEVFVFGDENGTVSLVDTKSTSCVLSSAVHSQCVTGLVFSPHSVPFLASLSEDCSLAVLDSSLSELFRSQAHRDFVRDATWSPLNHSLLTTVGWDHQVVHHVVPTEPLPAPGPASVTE

| Structure (SMILES) | IC50 (PRMT5/MEP50 complex; [1]) [nM] | IC50 (PRMT5/MEP50 complex; read-out: Flash Plate IC50) [nM] | IC50 (Granta-519 cells; [2]) [nM] | IC50 (Granta-519 cells; Granta-519, initial testing, read-out: Prolif_(Granta) IC50) [nM] |
| --- | --- | --- | --- | --- |
| C[C@@](O)(c1ccc2c(c1)CC2)[C@H]1O[C@@H](n2ccc3c(N)ncnc32)[C@H](O)[C@@H]1O [Example 1, (2R,3R,4S,5S)-2-(4-amino-7H-pyrrolo[2,3-d]pyrimidin-7-yl)-5-((R)-1-(bicyclo[4.2.0]octa-1(6),2,4-trien-3-yl)-1-hydroxyethyl)tetrahydrofuran-3,4-diol] | 6.3 | 6.2 | 38 | 28 |
| Nc1ncnc2c1ccn2[C@@H]1O[C@H]([C@H](O)c2ccc3c(c2)CC3)[C@@H](O)[C@H]1O [Example 2, (2R,3R,4S,5R)-2-(4-amino-7H-pyrrolo[2,3-d]pyrimidin-7-yl)-5-((R)-bicyclo[4.2.0]octa-1(6),2,4-trien-3-yl(hydroxy)methyl)tetrahydrofuran-3,4-diol] | 4.2 | 4.1 | 35 |  |
| Nc1ncnc2c1c(F)cn2[C@@H]1O[C@H]([C@H](O)c2ccc3c(c2)CC3)[C@@H](O)[C@H]1O [Example 6, (2R,3R,4S,5R)-2-(4-amino-5-fluoro-7H-pyrrolo[2,3-d]pyrimidin-7-yl)-5-((R)-bicyclo[4.2.0]octa-1(6),2,4-trien-3-yl(hydroxy)methyl)tetrahydrofuran-3,4-diol] |  | 2.8 | 67 |  |
| Cc1ncnc2c1ccn2[C@@H]1O[C@H]([C@H](O)c2ccc3c(c2)CC3)[C@@H](O)[C@H]1O [Example 11, (2R,3S,4R,5R)-2-((R)-bicyclo[4.2.0]octa-1(6),2,4-trien-3-yl(hydroxy)methyl)-5-(4-methyl-7H-pyrrolo[2,3-d]pyrimidin-7-yl)tetrahydrofuran-3,4-diol] | 5.9 | 6.8 | 92 |  |
| Nc1ncnc2c1c(Br)cn2[C@@H]1O[C@H]([C@H](O)c2ccc3c(c2)CC3)[C@@H](O)[C@H]1O [Example 36, (2R,3R,4S,5R)-2-(4-amino-5-bromo-7H-pyrrolo[2,3-d]pyrimidin-7-yl)-5-((R)-bicyclo[4.2.0]octa-1,3,5-trien-3-yl(hydroxy)methyl)tetrahydrofuran-3,4-diol] |  | 20 | 1100 |  |
| Cc1ncnc2c1ccn2[C@@H]1O[C@H]([C@H](O)c2nc3c(s2)CCC3)[C@@H](O)[C@H]1O [Example 52, (2S,3S,4R,5R)-2-((S)-(5,6-dihydro-4H-cyclopenta[d]thiazol-2-yl)(hydroxy)methyl)-5-(4-methyl-7H-pyrrolo[2,3-d]pyrimidin-7-yl)tetrahydrofuran-3,4-diol] |  | 9.3 | 396 |  |
| OCCc1ncnc2c1ccn2[C@@H]1O[C@H]([C@H](O)c2ccc3c(c2)CC3)[C@@H](O)[C@H]1O [Example 53, (2R,3S,4R,5R)-2-((R)-bicyclo[4.2.0]octa-1,3,5-trien-3-yl(hydroxy)methyl)-5-(4-(2-hydroxyethyl)-7H-pyrrolo[2,3-d]pyrimidin-7-yl)tetrahydrofuran-3,4-diol] |  | 134 | 10000 |  |
| CNc1ncnc2c1ccn2[C@@H]1O[C@H]([C@H](O)c2ccc3c(c2)CC3)[C@@H](O)[C@H]1O [Example 54, (2R,3S,4R,5R)-2-((R)-bicyclo[4.2.0]octa-1(6),2,4-trien-3-yl(hydroxy)methyl)-5-(4-(methylamino)-7H-pyrrolo[2,3-d]pyrimidin-7-yl)tetrahydrofuran-3,4-diol] |  | 37.6 | 1010 |  |
| O[C@@H]1[C@H](O)[C@@H]([C@H](O)c2ccc3c(c2)CC3)O[C@H]1n1ccc2c(Cl)ncnc21 [Example 56, (2R,3S,4R,5R)-2-((R)-bicyclo[4.2.0]octa-1(6),2,4-trien-3-yl(hydroxy)methyl)-5-(4-chloro-7H-pyrrolo[2,3-d]pyrimidin-7-yl)tetrahydrofuran-3,4-diol] |  | 17.6 | 50000 |  |
